# Measurements from DBAASP.
# Legend:
# Assay in all cases: ≥ marks a high value that may be exact or a test limit, other limits are often not marked, values filed in µg/mL are converted to µM
# [1] = tested on: Staphylococcus aureus VRSA1
# [2] = tested on: Enterococcus faecium BCRC 15B0132
# [3] = tested on: Escherichia coli ATCC 25922
# [4] = tested on: Staphylococcus aureus VRSA2
# [5] = tested on: Staphylococcus aureus VISA3
# [6] = tested on: Staphylococcus aureus VISA1
# [7] = tested on: Staphylococcus aureus
# [8] = tested on: Pseudomonas aeruginosa
# [9] = tested on: Salmonella enterica
# [10] = tested on: Staphylococcus epidermidis
# [11] = tested on: Enterobacter cloacae
# [12] = tested on: Acinetobacter baumannii
# [13] = tested on: Escherichia coli ATCC 35218
# [14] = tested on: Klebsiella oxytoca
# [15] = tested on: Klebsiella aerogenes
# [16] = tested on: Proteus mirabilis
# [17] = tested on: Staphylococcus haemolyticus
# [18] = tested on: Klebsiella pneumoniae
# [19] = tested on: Staphylococcus saprophyticus
# [20] = tested on: Serratia marcescens
# [21] = tested on: Micrococcus luteus ATCC 9341
# [22] = tested on: Candida albicans ATCC 36232
# [23] = tested on: Proteus vulgaris ATCC 6380
# [24] = tested on: Staphylococcus aureus ATCC 6538
# [25] = tested on: Escherichia coli ATCC 2592
# [26] = tested on: Pseudomonas aeruginosa ATCC 9027
# [27] = tested on: Escherichia coli NBRC 14237
# [28] = tested on: Pseudomonas aeruginosa NBRC 12582
# [29] = tested on: Staphylococcus aureus NBRC 12732
# [30] = tested on: Staphylococcus aureus UAMS-1
# [31] = tested on: Staphylococcus aureus USA 200
# [32] = tested on: Enterococcus faecium V286-17
# [33] = tested on: Staphylococcus aureus Newman
# [34] = tested on: Escherichia coli E423-17
# [35] = tested on: Staphylococcus aureus MU50
# [36] = tested on: Acinetobacter baumannii B28-16
# [37] = tested on: Klebsiella pneumoniae E406-17
# [38] = tested on: Staphylococcus aureus USA 300
# [39] = tested on: Pseudomonas aeruginosa E411-17
# [40] = tested on: Staphylococcus aureus M838-17
# [41] = tested on: Staphylococcus aureus USA 400
# [42] = tested on: Escherichia coli NBRC 3972
# [43] = tested on: Candida viswanathii NBRC 10321
# [44] = tested on: Aspergillus oryzae NBRC 100959
# [45] = tested on: Pseudomonas putida NBRC 100650
# [46] = tested on: Micrococcus luteus NBRC 3333
# [47] = tested on: Staphylococcus epidermidis NBRC 12993
smiles,measurement,setting,value
CC(=O)N[C@@H](C)C(=O)N[C@@H](CCCCN)C(=O)N[C@@H](CCCN=C(N)N)C(=O)N[C@@H](Cc1ccccc1)C(=O)N[C@@H](Cc1ccccc1)C(=O)NCC(=O)N[C@@H](Cc1ccc(O)cc1)C(=O)N[C@@H](CCCCN)C(=O)N[C@@H](CCCN=C(N)N)C(=O)N[C@@H](CCCCN)C(=O)N[C@@H](Cc1ccccc1)C(=O)N[C@@H](Cc1ccccc1)C(N)=O [AKRFFGYKRKFF],MIC,[1],≥ 40.1 µM
same,MIC,[2],≥ 40.1 µM
same,MIC,[3],40.1 µM
same,MIC,[4],≥ 40.1 µM
same,MIC,[5],≥ 40.1 µM
same,MIC,[6],≥ 40.1 µM
CC[C@H](C)[C@H](NC(=O)[C@H](CCCCN)NC(=O)[C@H](C)NC(=O)[C@H](CC(C)C)NC(=O)[C@H](Cc1ccccc1)NC(=O)[C@H](CCCN=C(N)N)NC(=O)[C@H](C)NC(=O)[C@H](Cc1ccc(O)cc1)NC(=O)[C@H](CCCN=C(N)N)NC(=O)[C@H](Cc1cnc[nH]1)NC(=O)[C@H](Cc1ccccc1)NC(=O)[C@H](Cc1ccc(O)cc1)NC(=O)[C@H](CCCN=C(N)N)NC(=O)[C@H](CCC(N)=O)NC(=O)[C@@H](N)Cc1ccccc1)C(=O)N[C@@H](Cc1c[nH]c2ccccc12)C(=O)N[C@@H](CCCCN)C(=O)NCC(=O)O [FQRYFHRYARFLAKIWKG],MIC,[7],1.8 µM
same,MIC,[8],2.8 µM
same,MIC,[9],10 µM
same,MIC,[10],10 µM
same,MIC,[11],10 µM
same,MIC,[12],10 µM
same,MIC,[13],0.9 µM
same,MIC,[14],3.6 µM
same,MIC,[15],10 µM
same,MIC,[16],10 µM
same,MIC,[17],10 µM
same,MIC,[18],1.4 µM
same,MIC,[19],10 µM
same,MIC,[20],10 µM
CC(C)[C@H](NC(=O)[C@H](CCCCN)NC(=O)[C@@H]1CCCN1C(=O)[C@@H](NC(=O)[C@@H](NC(=O)[C@H](CCCCN)NC(=O)[C@@H](N)CCCCN)C(C)C)C(C)C)C(=O)N[C@@H](CCCCN)C(=O)N[C@@H](Cc1ccccc1)C(=O)N[C@@H](CCCCN)C(N)=O [KKVVPKVKFK],MIC,[7],> 83.3 µM
same,MIC,[21],≥ 83.3 µM
same,MIC,[22],≥ 83.3 µM
same,MIC,[23],≥ 83.3 µM
same,MIC,[24],> 83.3 µM
same,MIC,[25],≥ 83.3 µM
same,MIC,[26],83.3 µM
CC(C)C[C@H](NC(=O)[C@@H](N)CCCCN)C(=O)N[C@@H](CCCCN)C(=O)N[C@H](C(=O)N[C@@H](Cc1c[nH]c2ccccc12)C(=O)N1CCC[C@H]1C(=O)N[C@@H](CCCCN)C(=O)N[C@@H](CC(N)=O)C(=O)N[C@@H](Cc1ccc(O)cc1)C(=O)N[C@@H](Cc1c[nH]c2ccccc12)C(=O)N[C@@H](CCCN=C(N)N)C(=O)N[C@@H](CCCCN)C(=O)N[C@H](C(=O)N[C@@H](Cc1c[nH]c2ccccc12)C(=O)N[C@@H](CO)C(=O)N[C@@H](CCCCN)C(=O)N[C@@H](CCCCN)C(=O)N[C@@H](CC(N)=O)C(=O)N[C@@H](Cc1c[nH]c2ccccc12)C(=O)N[C@@H](CCCN=C(N)N)C(=O)N[C@@H](CCCCN)C(=O)N[C@@H](Cc1ccccc1)C(=O)N[C@H](C(=O)N[C@@H](CCCCN)C(=O)N[C@@H](CCCCN)C(=O)N[C@@H](Cc1ccccc1)C(=O)N[C@@H](CCCCN)C(=O)N[C@@H](Cc1cnc[nH]1)C(=O)N[C@@H](Cc1c[nH]c2ccccc12)C(=O)O)C(C)C)C(C)C)[C@@H](C)O [KLKTWPKNYWRKVWSKKNWRKFVKKFKHW],MIC,[27],3.12 µM
same,MIC,[28],3.12 µM
same,MIC,[29],3.12 µM
CC(C)[C@H](NC(=O)[C@H](Cc1c[nH]c2ccccc12)NC(=O)[C@H](Cc1c[nH]c2ccccc12)NC(=O)[C@H](Cc1c[nH]c2ccccc12)NC(=O)[C@H](Cc1c[nH]c2ccccc12)NC(=O)[C@H](CCCN=C(N)N)NC(=O)[C@H](CCCN=C(N)N)NC(=O)[C@@H](N)CCCN=C(N)N)C(N)=O [RRRWWWWV],MIC,[7],4 µM
same,MIC,[30],4 µM
same,MIC,[31],4 µM
same,MIC,[32],2 µM
same,MIC,[33],4 µM
same,MIC,[34],2 µM
same,MIC,[35],8 µM
same,MIC,[36],8 µM
same,MIC,[37],11.3 µM
same,MIC,[38],2.83 µM
same,MIC,[39],5.66 µM
same,MIC,[18],11.3 µM
same,MIC,[40],3.1 µM
same,MIC,[41],4 µM
CC[C@H](C)[C@H](NC(=O)[C@H](CCCCN)NC(=O)[C@H](CCCN=C(N)N)NC(=O)[C@H](CCC(=O)O)NC(=O)[C@H](CCC(=O)O)NC(=O)[C@H](CCSC)NC(=O)[C@@H](NC(=O)[C@H](CC(N)=O)NC(=O)[C@@H](N)CO)C(C)C)C(=O)N[C@@H](CCCCN)C(=O)N[C@H](C(=O)N[C@@H](Cc1ccc(O)cc1)C(=O)N[C@@H](CC(C)C)C(=O)N1CCC[C@H]1C(=O)N[C@@H](CCCN=C(N)N)C(=O)N[C@@H](CCSC)C(=O)N[C@@H](CCCCN)C(=O)N[C@@H](CCSC)C(=O)N[C@@H](CCC(=O)O)C(=O)N[C@@H](CCC(=O)O)C(=O)O)C(C)C [SNVMEERKIKVYLPRMKMEE],MIC,[42],≥ 319 µM
same,MIC,[43],≥ 319 µM
same,MIC,[44],≥ 319 µM
same,MIC,[45],≥ 319 µM
same,MIC,[46],≥ 319 µM
same,MIC,[47],≥ 319 µM
